Test results: patent US8470810B2, “Heterocyclic compounds suitable for treating disorders that respond to modulation of the dopamine D3 receptor” (Abbott GmbH & Co. KG, priority 2004, dated 2013)

What was measured:
[1] = biological target: T1, human dopamine D3 receptors (Homo sapiens, UniProt P35462); assay: Dopamine D3 receptor binding, displacement of [125I]-iodosulpride; conditions: for Ki: membranes of HEK-293 cells stably expressing human D3, 0.1 nM [125I]-iodosulpride, 25° C., 60 minutes; for Ki(D2)*/Ki(D3)*: selectivity ratio of the receptor binding constants D2 over D3
T1 construct: expressed in transfected cells
Procedure: (§1) The substance to be tested was either dissolved in methanol/Chremophor® (BASFAG) or in dimethyl sulfoxide and then diluted with water to the desired concentration.
(§2) Each assay mixture was run in triplicate.
The incubation buffer contained 50 mM tris, 120 mM NaCl, 5 mM KCl, 2 mM CaCl2, 2 mM MgCl2 and 0.1% bovine serum albumin, 10 μM quinolone and 0.1% ascorbic acid (prepared fresh daily). The buffer was adjusted to pH 7.4 with HCl.
(§3) After having been incubated at 25° C. for 60 minutes, the assay mixtures were filtered through a Whatman GF/B glass fiber filter under vacuum using a cell collecting device. The filters were transferred to scintillation viols using a filter transfer system. After 4 ml of Ultima Gold® (Packard) have been added, the samples were shaken for one hour and the radioactivity was then counted in a Beta-Counter (Packard, Tricarb 2000 or 2200CA). The cpm values were converted into dpm using a standard quench series and the program belonging to the instrument.
(§4) The inhibition curves were analyzed by means of iterative nonlinear regression analysis using the Statistical Analysis System (SAS) which is similar to the “LIGAND” program described by Munson and Rodbard.
(§5) The results of the receptro binding studies are expressed as receptor binding constants Ki(D2) and Ki(D3), respectively, as herein before described, and given in table 6.

[2] = biological target: T2, human dopamine D2L receptors (long isoform) (Homo sapiens, UniProt P14416); assay: Dopamine D2L receptor binding, displacement of [125I] iodospiperone; conditions: membranes of HEK-293 cells stably expressing human D2L; 0.01 nM [125I] iodospiperone; 25° C., 60 minutes; read-out: Ki(D2)*
T2 construct: expressed in transfected cells
Procedure: as §1, §2
The incubation buffer contained 50 mM tris, 120 mM NaCl, 5 mM KCl, 2 mM CaCl2, 2 mM MgCl2 and 0.1% bovine serum albumin. The buffer was adjusted to pH 7.4 with HCl.
as §3, §4, §5

T2 sequence (P14416 whole entry, canonical isoform): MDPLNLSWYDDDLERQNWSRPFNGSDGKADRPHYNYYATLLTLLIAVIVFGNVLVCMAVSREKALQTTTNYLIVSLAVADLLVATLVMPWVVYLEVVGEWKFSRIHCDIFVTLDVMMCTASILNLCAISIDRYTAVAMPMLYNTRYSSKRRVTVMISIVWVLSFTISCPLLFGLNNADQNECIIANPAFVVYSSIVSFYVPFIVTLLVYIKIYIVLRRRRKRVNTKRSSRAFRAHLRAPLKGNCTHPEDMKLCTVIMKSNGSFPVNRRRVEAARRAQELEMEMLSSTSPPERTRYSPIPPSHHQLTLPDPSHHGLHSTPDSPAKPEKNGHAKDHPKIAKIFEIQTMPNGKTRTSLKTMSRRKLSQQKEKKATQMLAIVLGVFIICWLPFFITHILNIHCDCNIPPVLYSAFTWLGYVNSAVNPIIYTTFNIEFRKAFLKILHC
T1 sequence (P35462 whole entry): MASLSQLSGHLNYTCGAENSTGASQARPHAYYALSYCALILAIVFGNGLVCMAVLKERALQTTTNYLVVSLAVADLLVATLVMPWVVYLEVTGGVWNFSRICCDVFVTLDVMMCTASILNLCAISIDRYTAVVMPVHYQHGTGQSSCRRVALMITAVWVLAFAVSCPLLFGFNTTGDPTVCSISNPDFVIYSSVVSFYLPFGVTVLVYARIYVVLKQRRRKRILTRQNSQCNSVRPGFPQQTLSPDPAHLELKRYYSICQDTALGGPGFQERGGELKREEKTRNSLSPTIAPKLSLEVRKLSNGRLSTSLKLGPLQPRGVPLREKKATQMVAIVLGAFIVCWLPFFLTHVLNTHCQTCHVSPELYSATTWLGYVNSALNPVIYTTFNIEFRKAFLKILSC

Ki [1] [nM] | Ki(D2)*/Ki(D3)* [1] | Ki [2] [nM] | SMILES
5.75 | 113 | 647 | CCCN1CC(c2ccc(NS(=O)(=O)c3ccc(C(C)C(F)(F)F)cc3)cc2)C1 (centres unmarked) [Example 63, N-[4-(1-Propyl-azetidin-3-yl)-phenyl]-4-(2,2,2-trifluoro-1-methyl-ethyl)benzenesulfonamide]
2.1 | 164 | 344 | CCCN1CC(c2ccc(NS(=O)(=O)c3ccc(C(C)C(F)F)cc3)cc2)C1 (centres unmarked) [Example 64, 4-(2,2-Difluoro-1-methyl-ethyl)-N-[4-(1-propyl-azetidin-3-yl)-phenyl]-benzenesulfonamide]
6.79 | 29 | 197 | CCCN1CC[C@@H](c2ccc(NS(=O)(=O)c3ccc(-c4csnn4)cc3)cc2)C1 [Example 65, N-[4-((S)-1-Propyl-pyrrolidin-3-yl)-phenyl]-4-[1,2,3]thiadiazol-4-yl-benzenesulfonamide]
0.35 | 11 | 3.88 | CCCN1CC[C@@H](c2ccc(NS(=O)(=O)c3ccc(N4CCCC4)cc3)cc2)C1 [Example 67, N-[4-((S)-1-Propyl-pyrrolidin-3-yl)-phenyl]-4-pyrrolidin-1-yl-benzenesulfonamide]
3 | 47 | 142 | CCCN1CC[C@@H](c2ccc(NS(=O)(=O)c3ccc(SC(F)(F)F)cc3)cc2)C1 [Example 68, N-[4-((S)-1-Propyl-pyrrolidin-3-yl)-phenyl]-4-trifluoromethylsulfanyl-benzenesulfonamide]
2.51 | 36 | 90.3 | CCCN1CC[C@@H](c2ccc(NS(=O)(=O)c3ccc(-n4cccn4)cc3)cc2)C1 [Example 69, N-[4-((S)-1-Propyl-pyrrolidin-3-yl)-phenyl]-4-pyrazol-1-yl-benzenesulfonamide]
0.84 | 44 | 37.3 | CCCN1CC[C@@H](c2ccc(NS(=O)(=O)c3ccc(-c4cnco4)cc3)cc2)C1 [Example 70, 4-Oxazol-5-yl-N-[4-((S)-1-propyl-pyrrolidin-3-yl)-phenyl]-benzenesulfonamide]
4.79 | 11 | 52.3 | CCCN1CC[C@@H](c2ccccc2NS(=O)(=O)c2ccc(-c3cnco3)cc2)C1 [Example 71, 4-Oxazol-5-yl-N-[2-((S)-1-propyl-pyrrolidin-3-yl)-phenyl]-benzenesulfonamide]
35.1 | 13 | 473 | CCCN1CC[C@@H](c2ccc(NS(=O)(=O)c3ccc(N4CCCC4=O)cc3)cc2)C1 [Example 72, 4-(2-Oxo-pyrrolidin-1-yl)-N-[4-((S)-1-propyl-pyrrolidin-3-yl)-Phenyl]-benzenesulfonamide]
0.61 | – | 6.73 | CCCN1CC[C@@H](c2ccc(NS(=O)(=O)c3ccc(-c4ccco4)cc3)cc2)C1 [Example 73, 4-Furan-2-yl-N-[4-((S)-1-propyl-pyrrolidin-3-yl)-phenyl]-benzenesulfonamide]
0.63 | 19 | 12.2 | CCCN1CC[C@@H](c2ccc(NS(=O)(=O)c3ccc(N4CCC4)cc3)cc2)C1 [Example 75, 4-Azetidin-1-yl-N-[4-((S)-1-propyl-pyrrolidin-3-yl)-phenyl]-benzenesulfonamide]
1.33 | 37 | 50 | CCCN1CC[C@@H](c2ccc(NS(=O)(=O)c3ccc(C(C)C(F)F)cc3)cc2)C1 (stereo partly drawn) [Example 77, 4-(2,2-Difluoro-1-methyl-ethyl)-N-[4-((S)-1-propyl-pyrrolidin-3-yl)-phenyl]-benzenesulfonamide]
1.4 | 30 | 41.9 | CCCN1CC[C@@H](c2ccc(NS(=O)(=O)c3ccc(C(C)C(F)(F)F)cc3)cc2)C1 (stereo partly drawn) [Example 78, N-[4-((S)-1-Propyl-pyrrolidin-3-yl)-phenyl]-4-(2,2,2-trifluoro-1-methyl-ethyl)benzenesulfonamide]
13.5 | 82 | 1110 | CCCN1CC[C@@H](c2ccc(NS(=O)(=O)c3cc4ccccc4o3)cc2)C1 [Example 79, Benzofuran-2-sulfonic acid [4-((S)-1-propyl-pyrrolidin-3-yl)-phenyl]-amide]
37.6 | 29 | 1100 | CCCN1CC[C@@H](c2ccc(NS(=O)(=O)c3ccc(-c4ccno4)s3)cc2)C1 [Example 80, 5-Isoxazol-5-yl-thiophene-2-sulfonic acid [4-((S)-1-propyl-pyrrolidin-3-yl)-phenyl]-amide]
31.3 | 37 | 1160 | CCCN1CC[C@@H](c2ccc(NS(=O)(=O)c3ccc(-c4ccon4)s3)cc2)C1 [Example 81, 5-Isoxazol-3-yl-thiophene-2-sulfonic acid [4-((S)-1-propyl-pyrrolidin-3-yl)-phenyl]-amide]
5.59 | 78 | 437 | CCCN1CC[C@@H](c2ccc(NS(=O)(=O)c3ccc(-c4cnco4)s3)cc2)C1 [Example 82, 5-Oxazol-5-yl-thiophene-2-sulfonic acid [4-((S)-1-propyl-pyrrolidin-3-yl)-phenyl]-amide]
0.95 | 17 | 16.2 | CCN1CC[C@@H](c2ccc(NS(=O)(=O)c3ccc(C(C)C)cc3)cc2)C1 [Example 84, 4-Isopropyl-N-[4-((S)-1-ethyl-pyrrolidin-3-yl)-phenyl]-benzenesulfonamide]
0.57 | 32 | 18.5 | CC(C)c1ccc(S(=O)(=O)Nc2ccc([C@@H]3CCN(C)C3)cc2)cc1 [Example 85, 4-Isopropyl-N-[4-((S)-1-methyl-pyrrolidin-3-yl)-phenyl]-benzenesulfonamide]
1.18 | 101 | 119 | CCCN1CC[C@@H](c2ccc(NS(=O)(=O)c3ccc(CCF)cc3)cc2)C1.Cl [Example 86, 4-(2-Fluoro-ethyl)-N-[4-((S)-1-propyl-pyrrolidin-3-yl)-phenyl]-benzenesulfonamide, hydrochloride]
0.55 | 37 | 20.5 | CCCN1CC[C@@H](c2ccc(NS(=O)(=O)c3ccc([C@H](C)CF)cc3)cc2)C1 [Example 87, 4-((S)-2-Fluoro-1-methyl-ethyl)-N-[4-((S)-1-propyl-pyrrolidin-3-yl)-phenyl]-benzenesulfonamide]
0.92 | 45 | 41 | CCCN1CC[C@@H](c2ccc(NS(=O)(=O)c3ccc(CCC(F)(F)F)cc3)cc2)C1 [Example 88, N-[4-((S)-1-Propyl-pyrrolidin-3-yl)-phenyl]-4-(3,3,3-trifluoro-Propyl)-benzenesulfonamide]
0.6 | 45 | 27 | CCCc1ccc(S(=O)(=O)Nc2ccc([C@@H]3CCN(CCC)C3)cc2)s1 [Example 89, 5-Propyl-thiophene-2-sulfonic acid [4-((S)-1-propyl-pyrrolidin-3-yl)-phenyl]-amide]
11 | 25 | 280 | C=CCN1CC[C@H](c2ccc(NS(=O)(=O)c3ccc(C4CC4(F)F)cc3)cc2)C1 (stereo partly drawn) [Example 90, N-[4-((R)-1-Allyl-pyrrolidin-3-yl)-phenyl]-4-(2,2-difluoro-cyclopropyl)benzenesulfonamide]
